Test results taken from PubChem BioAssay AID330 (DTP/NCI, 2004).
“And” between values parts separate entries of the source, which are not always exact repeats. Identical values can stand only once. Inconclusive results and toxic doses are left out. Rule for the calls: active = survival T/C of 150% or more; inactive = T/C below 125% in these data.

System: P388 leukemia ip, CD2F1 mice, survival T/C
Test: NCI In Vivo Anticancer Drug Screen. Data for tumor model P388 Leukemia (intraperitoneal) in CD2F1 (CDF1) mice
Details: endpoint: median survival time, higher = longer survival
Method in brief: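 Mice carrying the transplanted tumor received test compound or vehicle. Survival was recorded in each group, and the value is the treated-group measurement divided by that of the vehicle-treated control group.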

[1] = dose: 60.0 mg/kg/injection, schedule: Q01DX005 (ip), vehicle: saline
[2] = dose: 120.0 mg/kg/injection, schedule: Q01DX005 (ip), vehicle: saline
[3] = dose: 240.0 mg/kg/injection, schedule: Q01DX005 (ip), vehicle: saline
[4] = dose: 100.0 mg/kg/injection, schedule: Q04DX002 (ip), vehicle: saline with Tween-80
[5] = dose: 200.0 mg/kg/injection, schedule: Q04DX002 (ip), vehicle: saline with Tween-80
[6] = dose: 3.0 mg/kg/injection, schedule: Q01DX009 (ip), vehicle: Klucel (hydroxypropylcellulose) (HPC)
[7] = dose: 12.0 mg/kg/injection, schedule: Q01DX009 (ip), vehicle: Klucel (hydroxypropylcellulose) (HPC)
[8] = dose: 50.0 mg/kg/injection, schedule: Q01DX005 (ip), vehicle: saline with Tween-80
[9] = dose: 100.0 mg/kg/injection, schedule: Q01DX005 (ip), vehicle: saline with Tween-80
[10] = dose: 200.0 mg/kg/injection, schedule: Q01DX005 (ip), vehicle: saline with Tween-80
[11] = dose: 50.0 mg/kg/injection, schedule: Q01DX005 (ip), vehicle: saline
[12] = dose: 100.0 mg/kg/injection, schedule: Q01DX005 (ip), vehicle: saline
[13] = dose: 200.0 mg/kg/injection, schedule: Q01DX005 (ip), vehicle: saline

Measured: T/C

c1ccc([P+](CC[P+](c2ccccc2)(c2ccccc2)c2ccccc2)(c2ccccc2)c2ccccc2)cc1
inactive: dose: 0.78 mg/kg/injection, schedule: Q01DX009 (ip), vehicle: saline 105 % of control | dose: 1.56 mg/kg/injection, schedule: Q01DX009 (ip), vehicle: saline 103 % of control

O=C(NO)/C(CC(=O)c1cccc(O)c1)=N\O
inactive: [1] 99 % of control | [2] 100 % of control | [3] 105 % of control

CCN(CC)C(=O)C(F)C(F)(F)C(F)(F)C(F)(F)C(F)(F)C(F)(F)C(F)(F)F (centres undefined)
inactive: dose: 50.0 mg/kg/injection, schedule: Q01DX009 (ip), vehicle: Klucel (hydroxypropylcellulose) (HPC) 102 % of control | dose: 100.0 mg/kg/injection, schedule: Q01DX009 (ip), vehicle: Klucel (hydroxypropylcellulose) (HPC) 101 % of control | dose: 200.0 mg/kg/injection, schedule: Q01DX009 (ip), vehicle: Klucel (hydroxypropylcellulose) (HPC) 99 % of control

COC(=O)c1c2ccccc2cn1C
inactive: [4] 100 % of control | [5] 102 % of control

O=[N+]([O-])CCc1ccc(OC2OC(CO)C(O)C(O)C2O)cc1 (centres undefined)
inactive: dose: 100.0 mg/kg/injection, schedule: Q04DX002 (ip), vehicle: saline 104 % of control | dose: 200.0 mg/kg/injection, schedule: Q04DX002 (ip), vehicle: saline 102 % of control | dose: 400.0 mg/kg/injection, schedule: Q04DX002 (ip), vehicle: saline 97 % of control

CC(C)C(NC(=O)C1CCCN1)P(=O)(O)O (centres undefined)
inactive: [1] 101 % of control | [2] 104 % of control | [3] 104 % of control

O=C1C=CC(=O)N1c1ccc(Cl)cc1
inactive: dose: 1.0 mg/kg/injection, schedule: Q01DX009 (ip), vehicle: Klucel (hydroxypropylcellulose) (HPC) 107 % of control | dose: 1.25 mg/kg/injection, schedule: Q01DX009 (ip), vehicle: Klucel (hydroxypropylcellulose) (HPC) 93 % of control | dose: 2.0 mg/kg/injection, schedule: Q01DX009 (ip), vehicle: Klucel (hydroxypropylcellulose) (HPC) 104 % of control | dose: 2.5 mg/kg/injection, schedule: Q01DX009 (ip), vehicle: Klucel (hydroxypropylcellulose) (HPC) 96 % of control | dose: 4.0 mg/kg/injection, schedule: Q01DX009 (ip), vehicle: Klucel (hydroxypropylcellulose) (HPC) 104 % of control | dose: 5.0 mg/kg/injection, schedule: Q01DX009 (ip), vehicle: Klucel (hydroxypropylcellulose) (HPC) 89 % of control | dose: 8.0 mg/kg/injection, schedule: Q01DX009 (ip), vehicle: Klucel (hydroxypropylcellulose) (HPC) 102 % of control | dose: 10.0 mg/kg/injection, schedule: Q01DX009 (ip), vehicle: Klucel (hydroxypropylcellulose) (HPC) 93 % of control

CCCCCCCCNC(=O)C1C(=O)N(CCCCCCCC)C(=O)/C1=N/N (centres undefined)
inactive: [4] 100 % of control | [5] 92 % of control

N#Cc1ncc(C[P+](c2ccccc2)(c2ccccc2)c2ccccc2)nc1N
inactive: dose: 12.5 mg/kg/injection, schedule: Q01DX009 (ip), vehicle: saline with Tween-80 91 % of control | dose: 25.0 mg/kg/injection, schedule: Q01DX009 (ip), vehicle: saline with Tween-80 94 % of control | dose: 50.0 mg/kg/injection, schedule: Q01DX009 (ip), vehicle: saline with Tween-80 95 % of control

COC(=O)/C(C#N)=C/Sc1ccccc1
inactive: dose: 100.0 mg/kg/injection, schedule: Q01DX001 (ip), vehicle: saline with Tween-80 101 % of control | dose: 200.0 mg/kg/injection, schedule: Q01DX001 (ip), vehicle: saline with Tween-80 98 % of control | dose: 400.0 mg/kg/injection, schedule: Q01DX001 (ip), vehicle: saline with Tween-80 97 % of control

O=C(CCCCCCCCc1ccc(O)c(O)c1)c1c(O)cccc1O
inactive: [6] 101 % of control | [7] 108 % of control | dose: 24.0 mg/kg/injection, schedule: Q01DX009 (ip), vehicle: Klucel (hydroxypropylcellulose) (HPC) 101 % of control

COP(=O)(CC(=O)CCCCCO)OC
inactive: [1] 114 % of control | [2] 107 % of control | [3] 107 % of control

O=C(O)CCCCCCCCCCNC(=O)Nc1cccc(C(F)(F)F)c1
inactive: dose: 25.0 mg/kg/injection, schedule: Q01DX009 (ip), vehicle: saline 88 % of control | dose: 50.0 mg/kg/injection, schedule: Q01DX009 (ip), vehicle: saline 98 % of control | dose: 100.0 mg/kg/injection, schedule: Q01DX009 (ip), vehicle: saline 104 % of control | dose: 200.0 mg/kg/injection, schedule: Q01DX009 (ip), vehicle: saline 111 % of control

COC1C(COC(=O)c2ccccc2)OC(OC(C)=O)C1OC(C)=O (centres undefined)
inactive: [8] 94 % of control | [9] 96 % of control | [10] 100 % of control

Cc1ccc(CN2CCN(Cc3ccc(C)o3)C(C)C2)o1 (centres undefined)
inactive: [11] 101 % of control | [12] 101 % of control | [13] 100 % of control

CCOC(=O)Nc1cc2c(c(N)n1)N=C(c1ccc(Cl)cc1)CN2
inactive: dose: 1.5 mg/kg/injection, schedule: Q01DX009 (ip), vehicle: Klucel (hydroxypropylcellulose) (HPC) 92 % of control | [6] 111 % of control | [7] 95 % of control | dose: 12.5 mg/kg/injection, schedule: Q01DX009 (ip), vehicle: Klucel (hydroxypropylcellulose) (HPC) 86 % of control | dose: 50.0 mg/kg/injection, schedule: Q04DX003 (ip), vehicle: Klucel (hydroxypropylcellulose) (HPC) 101 % of control

CC1NC(=O)N(C(C)(C)C)C1=O (centres undefined)
inactive: [8] 111 % of control | [11] 101 % of control | [9] 111 % of control | [12] 100 % of control | [10] 120 % of control | [13] 102 % of control and 107 % of control
